US10350170B2, “Solid preparation” (Takeda Pharmaceutical Company Limited, priority 2015, dated 2019)

Test: Stability of compound A alone in a solid state to temperature, humidity
Format: physicochemical

## CONC(=O)Nc1ccc(-c2sc3c(c2CN(C)C)c(=O)n(-c2ccc(OC)nn2)c(=O)n3Cc2c(F)cccc2F)cc1 [compound A, N-(4-(1-(2,6-difluorobenzyl)-5-((dimethylamino)methyl)-3-(6-methoxy-3-pyridazinyl)-2,4-dioxo-1,2,3,4-tetrahydrothieno[2,3-d]pyrimidin-6-yl)phenyl)-N′-methoxyurea]
  stability to temperature, humidity and the like: stable
